The values below come from PubChem BioAssay (NCI).

For orientation: TGI means the concentration at which net growth stops. By GI50 is commonly meant the concentration giving 50% growth inhibition.

Some test systems named below: K-562 leukemia; CAKI-1 renal; SF-295 CNS; CCRF-CEM leukemia; ACHN renal; DU-145 prostate; MALME-3M melanoma; UO-31 renal; SK-MEL-5 melanoma; HOP-92 NSCLC.
Common to all, as to assay: DTP human tumour cell line panel, 48 h

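Cells were grown in 96-well plates and exposed to each compound for 48 hours at five concentrations; endpoints were interpolated linearly between bracketing concentrations, or set to the highest concentration if not reached. The concentration for 50% growth inhibition is given as GI50. TGI denotes the concentration required for complete inhibition of growth.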 A value given as a limit tells only on which side of the number the result lay.

Regarding `CCCC(CCN)(CCN)[N+](=O)[O-]`, the concentration for total growth inhibition (TGI) with K-562 leukemia, in the test on CAKI-1 renal, in the test with SF-295 CNS, with CCRF-CEM leukemia, in the test with ACHN renal and with DU-145 prostate was above 100 µM each time. The TGI in the test with MALME-3M melanoma, in the test with UO-31 renal and with SK-MEL-5 melanoma was above 100 µM each time.
With `O=C(NNc1nc(-c2ccccc2)cs1)C(F)(F)F`, the TGI is 93.5 µM in the test on K-562 leukemia; above 100 µM in the test on CAKI-1 renal; above 100 µM in the test with SF-295 CNS; above 100 µM with CCRF-CEM leukemia; above 100 µM in the test on ACHN renal; above 100 µM in the test on DU-145 prostate. Moreover, the results for the TGI in the test with MALME-3M melanoma, in the test with UO-31 renal and with SK-MEL-5 melanoma were above 100 µM, 31.6 µM and above 100 µM, respectively.
In the case of `COc1ccc2oc(=O)c(-c3csc(C)n3)cc2c1`, the TGI is 41.2 µM with HOP-92 NSCLC; above 100 µM in the test with K-562 leukemia; above 100 µM with CAKI-1 renal; 40 µM in the test with SF-295 CNS; above 100 µM in the test with CCRF-CEM leukemia; above 100 µM in the test on ACHN renal. Besides, the concentration for total growth inhibition (TGI) in the test on DU-145 prostate, in the test on UO-31 renal and in the test on SK-MEL-5 melanoma was above 100 µM throughout.
For `C[C@@H]1S[C@H](c2c(Cl)cccc2Cl)N2Cc3ccccc3N=C12`, the TGI in the test with HOP-92 NSCLC, with K-562 leukemia, in the test with CAKI-1 renal, in the test on SF-295 CNS, in the test with CCRF-CEM leukemia and in the test on ACHN renal was above 100 µM throughout. For the same molecule, the concentration for total growth inhibition (TGI) in the test on DU-145 prostate, in the test with UO-31 renal and with SK-MEL-5 melanoma was above 100 µM in each case.
In the case of `Cc1ccccc1NC(=O)Cc1csc2[n+]1C(=O)/C(=C/c1ccc([N+](=O)[O-])cc1)S2`, the TGI in the test with HOP-92 NSCLC is above 100 µM; in the test on CAKI-1 renal it was 61.8 µM; with SF-295 CNS, above 100 µM; in the test with ACHN renal, above 100 µM; in the test on DU-145 prostate, above 100 µM; in the test on UO-31 renal, 85.5 µM. In the test on SK-MEL-5 melanoma, this molecule returned a TGI above 100 µM.
In the case of `CCn1c(SCC(=O)NNC(=S)NC)nc2ccccc2c1=O`, the TGI was above 100 µM in the test on K-562 leukemia; 44.2 µM in the test with CAKI-1 renal; above 100 µM with SF-295 CNS; above 100 µM in the test with CCRF-CEM leukemia; above 100 µM in the test on ACHN renal; above 100 µM in the test on DU-145 prostate. Also, the TGI in the test on MALME-3M melanoma, in the test on UO-31 renal and in the test with SK-MEL-5 melanoma was above 100 µM each time.
Consider `Cc1nc2ccccc2c(/C=C/c2ccc(Cl)cc2)c1C(=O)/C=C/c1ccc(Cl)cc1`, for which the GI50 was 1.28 µM with K-562 leukemia, 0.605 µM with CCRF-CEM leukemia, 1.06 µM with UO-31 renal and 1.62 µM with SK-MEL-5 melanoma. For the same molecule, the TGI was above 100 µM in the test with K-562 leukemia, above 100 µM in the test on CCRF-CEM leukemia, 2.25 µM with UO-31 renal and 3 µM with SK-MEL-5 melanoma.
On to `C=CCOCn1cc(C)c(=O)[nH]c1=O`, for which the TGI with K-562 leukemia, with CAKI-1 renal, in the test on SF-295 CNS, in the test with CCRF-CEM leukemia, in the test on ACHN renal and in the test on DU-145 prostate was above 100 µM each time. Further, the TGI in the test on MALME-3M melanoma, in the test on UO-31 renal and with SK-MEL-5 melanoma was above 100 µM throughout.
As for `O=C(NC(=S)NC(=O)c1cc(O)c(O)c(O)c1)c1cc(O)c(O)c(O)c1`, the total growth inhibition concentration (TGI) in the test on HOP-92 NSCLC is above 100 µM; in the test with CAKI-1 renal, 44.3 µM; in the test with SF-295 CNS, 46.3 µM; in the test on CCRF-CEM leukemia, above 100 µM; in the test with ACHN renal, 44.9 µM; in the test on DU-145 prostate, 63.8 µM. Further, the TGI in the test with UO-31 renal came out at 44.1 µM; with SK-MEL-5 melanoma it was 57.7 µM.
For the molecule `COc1cc(N(Cc2ccc3oc(=O)c(-c4ccccc4)nc3c2)Cc2ccc3oc(=O)c(-c4ccccc4)nc3c2)cc(OC)c1OC`, the concentration for total growth inhibition (TGI) in the test with HOP-92 NSCLC, in the test with K-562 leukemia, in the test with CAKI-1 renal, with SF-295 CNS, in the test with CCRF-CEM leukemia and in the test with ACHN renal was above 10 µM in each case. The concentration for total growth inhibition (TGI) with DU-145 prostate, in the test on UO-31 renal and in the test with SK-MEL-5 melanoma was above 10 µM throughout.
Consider `C[C@H](C/C=C/C(C)(C)O)[C@H]1CC[C@@]2(C)[C@@H]3CC[C@H]4C(C)(C)[C@@H](O)CC[C@@]45C[C@@]35CC[C@]12C`, for which the TGI with HOP-92 NSCLC was 26.5 µM; in the test on K-562 leukemia, 70.3 µM; in the test on SF-295 CNS, 30.2 µM; with ACHN renal, 18.9 µM; in the test with DU-145 prostate it was 28.8 µM; in the test with UO-31 renal, 53.6 µM.
For the molecule `O=C(OCC(Cl)(Cl)Cl)O[C@@H]1CCCC1(c1ccccc1)c1ccccc1`, the concentration for total growth inhibition (TGI) with K-562 leukemia, with CAKI-1 renal, in the test with SF-295 CNS, in the test with CCRF-CEM leukemia, in the test on ACHN renal and in the test with DU-145 prostate was above 100 µM in each case. Also, the concentration for total growth inhibition (TGI) with UO-31 renal and in the test with SK-MEL-5 melanoma was above 100 µM throughout.
As for `CC1C(c2ccc(Cl)cc2)c2cc3c(cc2OC1N1CCOCC1)OCO3` (stereo not drawn), the TGI in the test on K-562 leukemia was above 100 µM; in the test on CAKI-1 renal it was 71.5 µM; in the test with SF-295 CNS, above 100 µM; in the test with CCRF-CEM leukemia, above 100 µM; with ACHN renal it was above 100 µM; in the test on DU-145 prostate it was above 100 µM. The TGI with UO-31 renal and in the test on SK-MEL-5 melanoma was above 100 µM each time.
In the case of `CCOC(=O)C1=COC(C)(CCc2ccccc2)CC1=O` (stereo not drawn), the TGI with K-562 leukemia, in the test with CAKI-1 renal, in the test on SF-295 CNS, in the test on ACHN renal, with DU-145 prostate and in the test with UO-31 renal was above 100 µM throughout. The TGI in the test on SK-MEL-5 melanoma was above 100 µM.
`COC(=O)c1ccc(Nc2nc3nc[nH]c3c(=O)[nH]2)cc1`: the TGI with HOP-92 NSCLC, in the test on CAKI-1 renal, with SF-295 CNS, in the test on CCRF-CEM leukemia, with ACHN renal and with DU-145 prostate was above 100 µM throughout. The TGI in the test with MALME-3M melanoma and in the test with SK-MEL-5 melanoma was above 100 µM each time.
